In ChEMBL document CHEMBL5360634, “Turonicin A, an Antifungal Linear Polyene Polyketide from an Australian Streptomyces sp” (J Nat Prod, 2023):
≈ marks a conversion by molar mass, not a printed value.

Key:
[1] = Antiproliferative activity against mouse NS-1 cells assessed as inhibition of cell growth measured after 48 hrs by resazurin staining based analysis; assay type: functional; details: NS1, 48 h
[2] = Cytotoxicity against human NFF cells assessed as inhibition of cell growth measured after 48 hrs by resazurin staining based analysis; assay type: toxicity
Staphylococcus aureus = experiment: Antibacterial activity against Staphylococcus aureus assessed as inhibition of bacterial growth measured after 48 hrs by resazurin staining based analysis; assay type: functional
Tritrichomonas foetus = experiment: Antiprotozoal activity against Tritrichomonas foetus KV-1 strain assessed as inhibition of protozoal growth measured after 72 hrs under anaerobic conditions; assay type: functional, organism-based; details: KV-1, 72 h
Bacillus subtilis = experiment: Antibacterial activity against Bacillus subtilis ATCC 6633 assessed as inhibition of bacterial growth measured after 48 hrs by resazurin staining based analysis; assay type: functional
Candida albicans = experiment: Antifungal activity against Candida albicans ATCC 10231 assessed as reduction in fungal growth measured after 48 hrs by resazurin staining based analysis; assay type: functional
Saccharomyces cerevisiae = experiment: Antifungal activity against Saccharomyces cerevisiae assessed as reduction in fungal growth measured after 48 hrs by resazurin staining based analysis; assay type: functional

SMILES | MIC (Staphylococcus aureus) | MIC (Bacillus subtilis) | MIC (Candida albicans) | MIC (Saccharomyces cerevisiae) | IC50 [1] | IC50 at 48 h [2] | IC50 (Tritrichomonas foetus)
CSC[S@+]([O-])C[C@H](CO)NC(=O)/C=C/c1c(C)[nH]c(=O)[nH]c1=O |  |  |  |  | 0.4 µM | 1.2 µM | 
Clc1ccccc1C(c1ccccc1)(c1ccccc1)n1ccnc1 [CLOTRIMAZOLE] |  |  | 0.1 µg/mL (≈ 0.29 µM) | 0.4 µg/mL (≈ 1.16 µM) |  |  | 
Cc1ncc([N+](=O)[O-])n1CCO [METRONIDAZOLE] |  |  |  |  |  |  | 0.9 µM
CN[C@H](CC(C)C)C(=O)N[C@H]1C(=O)N[C@@H](CC(N)=O)C(=O)N[C@H]2C(=O)N[C@H]3C(=O)N[C@H](C(=O)N[C@H](C(=O)O)c4cc(O)cc(O)c4-c4cc3ccc4O)[C@H](O)c3ccc(c(Cl)c3)Oc3cc2cc(c3O[C@@H]2O[C@H](CO)[C@@H](O)[C@H](O)[C@H]2O[C@H]2C[C@](C)(N)[C@H](O)[C@H](C)O2)Oc2ccc(cc2Cl)[C@H]1O [VANCOMYCIN] | 0.8 µg/mL (≈ 0.552 µM) | 0.05 µg/mL (≈ 0.0345 µM) |  |  |  |  | 

Now from value to compound, other results behind:

MIC (Staphylococcus aureus) | MIC (Bacillus subtilis) | MIC (Candida albicans) | MIC (Saccharomyces cerevisiae) | SMILES | IC50 [1] | IC50 at 48 h [2] | IC50 (Tritrichomonas foetus)
1.5 µg/mL (≈ 1.29 µM) | 0.097 µg/mL (≈ 0.0832 µM) | 0.0008 µg/mL (≈ 0.000686 µM) | 0.0002 µg/mL (≈ 0.000171 µM) | C\C(=C/C=C/C=C/C=C/C=C/CC/C=C/[C@H](C)[C@H](O)[C@@H](C)[C@H](O)/C=C/C=C/C=C/C=C/C=C/C[C@H](O)[C@H](C)C(=O)C[C@H](O)C[C@H](O)C[C@H](O)/C=C/C[C@@H](O)C[C@H](O)C[C@@H](O)C[C@H](O)/C=C/C[C@H](O)/C=C/C[C@H](O)C[C@H](O)CCCN)C(=O)O | > 80 µM | > 80 µM | > 80 µM
0.39 µg/mL (≈ 0.343 µM) | 0.097 µg/mL (≈ 0.0852 µM) | 0.0031 µg/mL (≈ 0.00272 µM) | 0.0008 µg/mL (≈ 0.000703 µM) | C\C(=C/C=C/C=C/C=C/CC/C=C/[C@H](C)[C@H](O)[C@@H](C)[C@H](O)/C=C/C=C/C=C/C=C/C=C/C[C@H](O)[C@H](C)C(=O)C[C@H](O)C[C@H](O)C[C@H](O)/C=C/C[C@@H](O)C[C@H](O)C[C@@H](O)C[C@H](O)/C=C/C[C@H](O)/C=C/C[C@H](O)CCCNC(=N)N)C(=O)O | 44 µM | > 80 µM | > 80 µM
3.1 µg/mL (≈ 2.72 µM) | 0.39 µg/mL (≈ 0.342 µM) | 0.0015 µg/mL (≈ 0.00132 µM) | 0.0004 µg/mL (≈ 0.000351 µM) | C\C(=C/C=C/C=C/C=C/CC/C=C/[C@H](C)[C@H](O)[C@@H](C)[C@H](O)/C=C/C=C/C=C/C=C/C=C/C[C@H](O)[C@H](C)C(=O)C[C@H](O)C[C@H](O)C[C@H](O)/C=C/C[C@@H](O)C[C@H](O)C[C@@H](O)C[C@H](O)/C=C/C[C@H](O)/C=C/C[C@H](O)C[C@H](O)CCCN)C(=O)O | > 80 µM | > 80 µM | > 80 µM
